Source: US10568913B2, “Method for generating mature β-like cells” (The University of Western Australia, priority 2013, dated 2020)

Experiments:
[1] = versus calcitriol; cited from earlier work
NeuroD = experiment: qRT-PCR of genes in matured insulin-secreting cells; type: cell-based, mouse; conditions: β-like cells treated with calcitriol
Procedure: Real time quantitative RT-PCR analysis was carried out using power SYBR Green PCR Master Mix and SYBR® Green Cells-to-Ct™ Kits purchased from Applied Biosystems (Foster City, USA). cDNA was amplified by PCR: 95° C. for 10 min, followed by 40 cycles of 95° C. for 15 sec and 60° C. for 1 min. The number of cycles of threshold (Ct) was measured with an ABI Prism 7900HT Sequence Detection System (Applied Biosystems) or a Rotor-Gene RG-3000 (Corbet Research, Sydney, Australia). All quantifications (ΔCt) were normalized with the internal 18s rRNA level (2^−Δct). Nic-containing differentiation medium was removed from the differentiated β-like cells. A warmed maturation medium was added to the differentiated cells. The maturation medium is Dulbecco's Modified Eagle Medium (Invitrogen) with 5.75 mM D-glucose without nicotinamide (10 mM), 2% B27 (Invitrogen) and 100 μg/ml streptomycin and 100 units/ml penicillin supplemented with calcitriol (10 nM). Cultures were incubated in 10% CO2 90% air at 37° C., for 4 days.

MIN6 cells = experiment: Glucose stimulated insulin secretion in highly passaged MIN6 cells; type: cell-based, mouse; conditions: FIG. 20, 21
Procedure: The differentiated cells were washed twice with warm PBS. After pre-incubation with Krebs-Ringer buffer at 37° C. for 90 min, the cells were incubated at 37° C. for 60 min with basal D-glucose (2.75 mM) or stimulus D-glucose (27.5 mM). Then each conditioned medium was collected to determine the insulin concentration using an insulin ELISA kit (Mercodia AB, Uppsala, Sweden). MIN6 cells were routinely maintained in a published protocol which contains Dulbecco's modified Eagle's medium (DMEM) containing 25 mM glucose, supplemented with 10% fetal calf serum, 2 mM L-glutamine, 25 mM Hepes, and 285 μM 2-mercaptoethanol. MIN6 cells presented in this study were at passages 30-40 (low passage, LP) or passages 60-70 (high passage, HP). All assays used MIN6 grown to 70-80% confluence unless otherwise stated.

[2] = tested on: differentiated β-like cells; experiment: Maturation of differentiated β-like cells, glucose stimulated insulin secretion; type: cell-based, mouse; conditions: calcitriol 10 nM, 4 days; glucose 2.75 / 27.5 mM (FIG. 19)
Procedure: The differentiated cells were washed twice with warm PBS. After pre-incubation with Krebs-Ringer buffer at 37° C. for 90 min, the cells were incubated at 37° C. for 60 min with basal D-glucose (2.75 mM) or stimulus D-glucose (27.5 mM). Then each conditioned medium was collected to determine the insulin concentration using an insulin ELISA kit (Mercodia AB, Uppsala, Sweden). Nic-containing differentiation medium was removed from the differentiated β-like cells. A warmed maturation medium was added to the differentiated cells. The maturation medium is Dulbecco's Modified Eagle Medium (Invitrogen) with 5.75 mM D-glucose without nicotinamide (10 mM), 2% B27 (Invitrogen) and 100 μg/ml streptomycin and 100 units/ml penicillin supplemented with calcitriol (10 nM). Cultures were incubated in 10% CO2 90% air at 37° C., for 4 days.

Ngn3+ islet progenitors = experiment: DsRed+ cell differentiation from purified Ngn3-GFP+ progenitors (Ngn3-GFP/RIP-DsRed mice); type: cell-based, mouse
Text: (§1) Approximately 7,500 E15.5 [at which the number of Ngn3^+ progenitors is peaked] mouse fetuses from both MIPGFP and Ngn3-GPF/RIP-DsRed lines were used for enrichment/purification of Ngn3^+ progenitors. Mouse pancreases were dissected under a stereoscope (Olympus, Tokyo, Japan). Eleven human fetal pancreases were collected from 18-22 week-fetuses (Table 1) and minced. Both mouse and human pancreases were enzymatically dissociated into single cells under aseptic conditions. Rat anti-E-cadherin (E-cad, also known as CD324 or uvomorulin) monoclonal antibody IgG2a (Invitrogen, Carlsbad), Alexa Fluor 647 anti-E-cad (eBioscience), rat anti-integrin α6 subunit (α6, also known as CD49f) mAb IgG2a, phycoerythrin (PE) rat anti-human α6 (Becton Dickson Biosciences, San Jose), PE anti-mouse CD133 (also known as prominin I, eBioscience), biotin rabbit anti-rat immunoglobumins, allophycocyanin (APC) rat anti-mouse CD45 and APC rat anti-mouse TER119 and streptavidin APC-Cy7, streptavidin PE-Texas Red, streptavidin APC (BD Biosciences) or streptavidin Alexa Fluor 750 (Invitrogen), were used. After each incubation with antibodies, cells were washed twice with FACS buffer (0.1% bovine serum albumin in phosphate buffered saline) and finally re-suspended in this buffer containing 1 μg/ml propidium iodide (PI) or 4′,6-diamidino-2-phenylindole (DAPI) for sorting (FACSAria II, Becton Dickson Labware, Bedford). The purity of sorted cells was determined by post-sort analysis. Data presented represented cell samples with over 90% purity.
Sorted β-cell progenitor-enriched cells or Ngn3^+ β-cell progenitors were differentiated in 96-, 12- or 6-well plates (BD Labware). The basal differentiation medium is Dulbecco's Modified Eagle Medium (Invitrogen) with 5.75 or 27.5 mM D-glucose supplemented with 1% B27 (Invitrogen) and 100 μg/ml streptomycin and 100 units/ml penicillin. Growth factor-reduced Matrigel (200 μg/ml, BD Biosciences) was overlayed onto cells in the presence of various potential regulators. […]
The number of β-like cells was directly quantified under a fluorescence microscope. […]

[3] = tested on: human islet progenitors (population III); experiment: Differentiation of FACS-enriched human fetal islet progenitors, immunofluorescence for insulin and glucagon; type: cell-based; conditions: 6 days, 10 mM Nic
Text: as §1, with “After each incubation with antibodies, cells were washed twice with FACS buffer (0.1% bovine serum albumin in phosphate buffered saline) and finally re-suspended in this buffer containing 1 μg/ml propidium iodide (PI) or 4′,6-diamidino-2-phenylindole (DAPI) for sorting (FACSAria II, Becton Dickson Labware, Bedford).” left out, “Data presented represented cell samples with over 90% purity.” left out

[4] = tested on: Ngn3+ progenitor-containing E-cad+ cells; experiment: Insulin-producing (MIPGFP+) cell differentiation from sorted E-cad+ cells of E15.5 MIPGFP mouse pancreas; type: cell-based; conditions: Nic 10 mM, serum-free and feeder-free culture (FIG. 1c,d)
Procedure: Approximately 7,500 E15.5 [at which the number of Ngn3^+ progenitors is peaked] mouse fetuses from both MIPGFP and Ngn3-GPF/RIP-DsRed lines were used for enrichment/purification of Ngn3^+ progenitors. Mouse pancreases were dissected under a stereoscope (Olympus, Tokyo, Japan). Eleven human fetal pancreases were collected from 18-22 week-fetuses (Table 1) and minced. Both mouse and human pancreases were enzymatically dissociated into single cells under aseptic conditions. […] After each incubation with antibodies, cells were washed twice with FACS buffer (0.1% bovine serum albumin in phosphate buffered saline) and finally re-suspended in this buffer containing 1 μg/ml propidium iodide (PI) or 4′,6-diamidino-2-phenylindole (DAPI) for sorting (FACSAria II, Becton Dickson Labware, Bedford). The purity of sorted cells was determined by post-sort analysis.
Sorted β-cell progenitor-enriched cells or Ngn3^+ β-cell progenitors were differentiated in 96-, 12- or 6-well plates (BD Labware). […] Growth factor-reduced Matrigel (200 μg/ml, BD Biosciences) was overlayed onto cells in the presence of various potential regulators. Thyrotropin releasing hormone (TRH, 100 nM) was purchased from Auspep (Melbourne, Australia). […] Cultures were incubated in 10% CO2 90% air at 37° C., for up to 8 days.
The number of β-like cells was directly quantified under a fluorescence microscope. To verify the accuracy of cell count, at least five randomly chosen fields per well were microphotographed under the inverse IX71 Olympus fluorescence microscope (Olympus, Tokyo, Japan) and the number of β-like cells determined with the Image Pro Plus software installed in the computer.

Compound	hypercalcaemic effect, fold less [1] [fold]	NeuroD expression (NeuroD)	glucose stimulated insulin secretion (GSIS) in dedifferentiated, highly passaged MIN6 cells (MIN6 cells)	maturation of differentiated β-like cells (GSIS) [2]	β-cell differentiation of Ngn3+ islet progenitors (number of DsRed+ cells) (Ngn3+ islet progenitors; calcitriol 10 nM with or without Nic 10 mM, day 4 (FIG. 17))	α and β cells detected immunochemically in cultured population III [3]	number of differentiated DsRed+ cells, share of optimal levels (Ngn3+ islet progenitors; Nic added at 24 hr after plating, counted at day 4)	DsRed+ cells, share of all cells by FACS (Ngn3+ islet progenitors; day 4 of culture, 0% at the start) [%]	number of MIPGFP+ cells, fold more in the presence of Nic [4]
C[C@H](CC#CC(C)(C)O)[C@H]1CC[C@@H]2/C(=C/C=C3C[C@@H](O)C[C@H](O)C3)CCC[C@@]21C [Inecalcitol, 19-nor-14-epi-23-yne calcitriol]	480	–	–	–	–	–	–	–	–
C=C1/C(=C\C=C2/CCC[C@]3(C)[C@@H]([C@H](C)CCCC(C)(C)O)CC[C@@H]23)C[C@@H](O)C[C@@H]1O [Calcitriol, 1, 25 (OH)2 vitamin D3]	–	further up-regulated	partially restores GSIS	promoted the maturation	does not promote β-cell differentiation	–	–	–	–
NC(=O)c1cccnc1 [Nic, pyridine-3-carboxylic acid amide]	–	–	regain partial GSIS	–	–	numerous single hormone-positive α and β cells	approximately 40%	35	at least 17 fold
